Measured values: patent US10336684B2, “Phenyl-(aza)cycloalkyl carboxylic acid GPR120 modulators” (BRISTOL-MYERS SQUIBB COMPANY, priority 2014, dated 2019)

Target: human GPR120 (Homo sapiens (Human), UniProt Q5NUL3)
Test: GPR120 pERK AlphaScreen SureFire assay (human GPR120 pERK assay)
Type: cell-based
Conditions: CHOA12 or CHO-K1 cells stably transfected with short form of human GPR120, 100% = 50 μM linolenic acid
Excerpt: GPR120 activity was monitored by measuring phosphorylation of ERK (pERK), since G protein receptors are known to activate the ERK signaling cascade either directly and/or through recruitment of arrestin that serves as a scaffold for downstream signaling events.
GPR120 pERK AlphaScreen SureFire Assay
The human and mouse GPR120-mediated intracellular phosphorylated ERK assays were established using CHOA12 cells stably transfected with the short form of human or mouse GPR120 receptor. Cells were cultured in growth medium consisting of F-12 media (Invitrogen Cat. #11765) with 5% Charcoal/Dextran FBS (Invitrogen Cat. #12676-029), 500 μg/mL GENETICIN® (Life Technologies Cat. #10131-027) and 250 μg/mL Zeocin (Invitrogen Cat. #R250-01). Cells were cryo preserved at a concentration of 2×10^7 cells/mL, in 90% Charcoal/Dextran FBS and 10% DMSO, and frozen in liquid nitrogen at a low passage number.
For the pERK assay, 2×10^7 cells/mL cryopreserved human and mouse cells were thawed rapidly in a 37° C. water bath and added to a T-225 flask containing 50 mL growth medium. The flasks were placed in a tissue culture incubator overnight (37° C., 5% CO2). The next day, cells were harvested with trypsin (Gibco Cat. #25300-054), resuspended in serum-containing growth medium and counted using a Cellometer and volume adjusted to a concentration of 0.6×10^6 cells/mL. Cells were plated into 384-well clear bottom tissue culture plates (BD Cat. #353962) at 50 μL/well, for a density of 30,000 cells/well using a MULTIDROP® and incubated for 16-18 hours (overnight) at 37° C. with 5% CO2. The next day, cells were serum starved in 30 μL of F-12 media without any serum or antibiotics for 2 hours at 37° C.
Test compounds were 3-fold, 11-point serially diluted in DMSO in a REMP assay plate (Matrix Cat. #4307) by Tecan and 5 μL was transferred into an ECHO source plate (Labcyte Cat. #LC-0200). Cells were then stimulated with 50 nL of compound dilutions using ECHO liquid handler for 7 minutes at 37° C. Compounds ranged from final assay concentrations of 33.33 μM to 0.56 nM.
The media was then dumped and cells lysed with 20 μL of 1× Lysis buffer from the AlphaScreen SureFire Phospho-ERK 1/2 Kit (Perkin Elmer Cat. #6760617M). The lysis buffer was diluted 5-fold with water before use. The plate was agitated on a shaker for 10 minutes after which 2 μL was transferred into a 384-well white proxiplate (Perkin Elmer Cat. #6008289). The SureFire assay reagent mix was prepared by mixing 60 parts Reaction Buffer, 10 parts Activation Buffer, 1 part Donor Beads, 1 part Acceptor Beads (Perkin Elmer Cat. #TGRES10K). 3.5 μL/well of this reagent mix was manually added to the proxiplate with a multichannel pipettor. Plates were spun down at 1000 rpm for 2 minutes, followed by light-protected incubation at room temperature for 2 hours. The plates were read on the Alpha-technology compatible Envision multilabel plate reader using AlphaScreen protocol according to manufacturer's specifications. The agonist effect of compounds was expressed as 100×(average sample-average blank)/(average total−average blank) where sample is the luminescence activity in the presence of test compound, blank is equal to the luminescence activity in the presence of DMSO control and the total is signal induced by 50 μM linolenic acid as reference compound. Activation data for the test compound over a range of concentrations was plotted as percentage activation of the test compound (100%=maximum response). After correcting for background, EC50 values were determined. The EC50 is defined as the concentration of test compound which produces 50% of the maximal response and was quantified using the 4 parameter logistic equation to fit the data.
The human and mouse GPR120-mediated intracellular phosphorylated ERK assays were also established using CHO-K1 cells stably transfected with the short form of human or mouse GPR120 receptor. […]

human GPR120, sequence (Q5NUL3 whole entry): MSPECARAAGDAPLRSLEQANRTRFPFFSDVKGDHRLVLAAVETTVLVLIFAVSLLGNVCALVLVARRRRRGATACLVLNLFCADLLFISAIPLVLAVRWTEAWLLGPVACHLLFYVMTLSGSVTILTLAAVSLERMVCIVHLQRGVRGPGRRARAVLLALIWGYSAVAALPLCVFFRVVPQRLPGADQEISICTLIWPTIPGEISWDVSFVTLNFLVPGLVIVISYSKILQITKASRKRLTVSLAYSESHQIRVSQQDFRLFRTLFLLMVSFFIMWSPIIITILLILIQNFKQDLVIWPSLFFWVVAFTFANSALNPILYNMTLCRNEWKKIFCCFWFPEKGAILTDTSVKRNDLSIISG

Structure (SMILES)	EC50 [µM]
Cc1ccc(O[C@H]2CCC[C@@H](c3ccc(CCOCC(=O)O)cc3)C2)cn1 (racemic) [Example 35]	1.61
O=C(O)COCCc1ccc([C@@H]2CCC[C@H](Oc3ccc(F)cc3)C2)cc1 (racemic) [Example 37]	4.24
O=C(O)COCCc1ccc([C@@H]2CCC[C@H](Oc3ccc(Cl)cc3)C2)cc1 (racemic) [Example 38]	0.72
N#Cc1ccc(O[C@H]2CCC[C@@H](c3ccc(CCOCC(=O)O)cc3)C2)cc1 (racemic) [Example 39]	3.24
O=C(O)[C@H]1C[C@@H]1CCc1ccc([C@@H]2CCC[C@@H](Oc3ccccc3)C2)cc1 (racemic) [Example 40]	3.75
O=C(O)[C@@H]1C[C@H]1CCc1ccc([C@@H]2CCC[C@@H](Oc3ccccc3)C2)cc1 (racemic) [Example 41]	1.94
O=C(O)[C@H]1C[C@@H]1COc1ccc([C@@H]2CCC[C@@H](Oc3ccccc3)C2)cc1 (racemic) [Example 42]	> 32
CC(C)O[C@H]1CCC[C@@H](c2ccc(OC[C@H]3C[C@@H]3C(=O)O)cc2)C1 (racemic) [Example 43]	> 16
O=C(O)CCCCc1ccc([C@@H]2CCC[C@@H](Oc3ccccc3)C2)cc1 (single isomer, unassigned) [Example 2, 5-(4-((+/−)-3-Phenoxycyclohexyl)phenyl)pentanoic acid]	2.36
CC(C)O[C@H]1CCC[C@@H](c2ccc(CCCCC(=O)O)cc2)C1 (single isomer, unassigned) [Example 3, 5-(4-((+/−)-3-Isopropoxycyclohexyl)phenyl)pentanoic acid]	1.16
O=C(O)COCCc1ccc([C@H]2CCC[C@@H](Oc3ccccc3)C2)cc1 (single isomer, unassigned) [Example 5]	1.03
O=C(O)[C@H]1C[C@@H]1CCc1ccc([C@@H]2CCC[C@H](Oc3ccccc3)C2)cc1 (single isomer, unassigned) [Example 7]	0.92
O=C(O)[C@H]1C[C@@H]1CCc1ccc([C@H]2CCCC(Oc3ccccc3)C2)cc1 (single isomer, unassigned) [Example 8]	1.45
O=C(O)[C@H]1C[C@@H]1CCc1ccc([C@@H]2CCCC(Oc3ccccc3)C2)cc1 (single isomer, unassigned) [Example 9]	0.65
O=C(O)CCCCc1ccc(C2CCCCC(Oc3ccccc3)C2)cc1 (single isomer, unassigned) [Example 13, 5-(4-(3-Phenoxycycloheptyl)phenyl)pentanoic acid]	1.03
O=C(O)COCCc1ccc(C2CCCCC(Oc3ccccc3)C2)cc1 (single isomer, unassigned) [Example 15, 2-(4-(3-Phenoxycycloheptyl)phenethoxy)acetic acid]	1.99
O=C(O)COCCc1ccc(C2CCCCC(Oc3ccccc3)C2)cc1 (single isomer, unassigned) [Example 16, 2-(4-(3-Phenoxycycloheptyl)phenethoxy)acetic acid]	0.75
O=C(O)[C@@H]1C[C@@H]1COc1ccc(N2CCCC(Oc3ccccc3)C2)cc1 (single isomer, unassigned) [Example 28, (+/−)-2-((4-(3-Phenoxypiperidin-1-yl)phenoxy)methyl)cyclopropanecarboxylic acid]	4.98
O=C(O)CCCCc1ccc(C2CCC(Oc3ccccc3)C2)cc1 (stereo not shown) [Example 18, 5-(4-(3-Phenoxycyclopentyl)phenyl)pentanoic acid]	1.38
O=C(O)COCCc1ccc(C2CCC(Oc3ccccc3)C2)cc1 (stereo not shown) [Example 19, 2-(4-(3-Phenoxycyclopentyl)phenethoxy)acetic acid]	2.13
O=C(O)CCCCc1ccc(N2CCC[C@H](Oc3ccc(F)cc3)C2)cc1 [Example 24, (S)-5-(4-(3-(4-Fluorophenoxy)piperidin-1-yl)phenyl)pentanoic acid]	0.93
O=C(O)COCCCc1ccc(N2CCCC(Oc3ccccc3)C2)cc1 (stereo not shown) [Example 27, 2-(3-(4-(3-Phenoxypiperidin-1-yl)phenyl)propoxy)acetic acid]	4.13
O=C(O)CCCCc1ccc(C2CCCCC(Oc3cccc(Cl)c3)C2)cc1 (stereo not shown) [Example 45]	2.02
O=C(O)CCCCc1ccc(C2CCCCC(Oc3ccccc3Cl)C2)cc1 (stereo not shown) [Example 46]	3.12
CC(C)OC1CCC(c2ccc(CCCCC(=O)O)cc2)C1 (stereo not shown) [Example 47]	3.77
O=C(O)[C@H]1C[C@@H]1CCc1ccc(N2CCC[C@@H](Oc3ccccc3)C2)cc1 [Example 48]	3.22
O=C(O)[C@H]1C[C@@H]1CCc1ccc(N2CCC[C@H](Oc3ccccc3)C2)cc1 [Example 49]	1.31
O=C(O)[C@@H]1C[C@H]1CCc1ccc(N2CCC[C@H](Oc3ccccc3)C2)cc1 [Example 51]	1.9

Molecules with a lower EC50, results first:

EC50 [µM]	Structure (SMILES)
0.63	O=C(O)COCCc1ccc(C2CCCCC(Oc3ccccc3)C2)cc1 (stereo not shown) [Example 14, 2-(4-(3-Phenoxycycloheptyl)phenethoxy)acetic acid]
0.6	O=C(O)[C@H]1C[C@@H]1COc1ccc(C2CCCC(Oc3ccccc3)C2)cc1 (mixture of isomers) [Example 11, (1S,2S)-2-((4-((+/−)-3-Phenoxycyclohexyl)phenoxy)methyl)cyclopropanecarboxylic acid]
0.57	O=C(O)CCCCc1ccc(N2CCC[C@H](Oc3ccccc3)C2)cc1F [Example 26, (S)-5-(2-Fluoro-4-(3-phenoxypiperidin-1-yl)phenyl)pentanoic acid]
0.54	O=C(O)CCCCc1c(F)cc(N2CCC[C@H](Oc3ccccc3)C2)cc1F [Example 25, (S)-5-(2,6-Difluoro-4-(3-phenoxypiperidin-1-yl)phenyl)pentanoic acid]
0.53	O=C(O)[C@@H]1C[C@H]1CCc1ccc([C@@H]2CCC[C@H](Oc3ccccc3)C2)cc1 (single isomer, unassigned) [Example 10]
0.53	O=C(O)CCCCc1ccc(C2CCCCC(Oc3ccc(Cl)cc3)C2)cc1 (stereo not shown) [Example 44]
0.5	O=C(O)CCCCc1ccc(N2CCC[C@H](Oc3ccccc3)C2)cc1 [Example 23, (S)-5-(4-(3-Phenoxypiperidin-1-yl)phenyl)pentanoic acid]
0.48	O=C(O)CCCCc1ccc([C@@H]2CCC[C@H](Oc3ccccc3)C2)cc1 (single isomer, unassigned) [Example 1, 5-(4-((+/−)-3-Phenoxycyclohexyl)phenyl)pentanoic acid]
0.41	O=C(O)[C@@H]1C[C@H]1CCc1ccc(N2CCC[C@@H](Oc3ccccc3)C2)cc1 [Example 50]
0.32	O=C(O)COCCc1ccc([C@@H]2CCC[C@H](Oc3ccccc3)C2)cc1 (single isomer, unassigned) [Example 4, 2-(4-((+/−)-3-Phenoxycyclohexyl)phenethoxy)acetic acid]
0.31	Cc1ccc(O[C@H]2CCC[C@@H](c3ccc(CCOCC(=O)O)cc3)C2)cc1 (racemic) [Example 36]
0.31	O=C(O)CCCCc1ccc(C2CCCCC(Oc3ccccc3)C2)cc1 (single isomer, unassigned) [Example 12, 5-(4-(3-Phenoxycycloheptyl)phenyl)pentanoic acid]
0.3	Cc1ccc(O[C@H]2CCC[C@@H](c3ccc(CCOCC(=O)O)cc3)C2)cc1F (racemic) [Example 34]
0.27	O=C(O)COCCc1ccc(C2CCCCC(Oc3ccccc3)C2)cc1 (single isomer, unassigned) [Example 17, 2-(4-(3-Phenoxycycloheptyl)phenethoxy)acetic acid]
0.18	O=C(O)COCCc1ccc([C@@H]2CCC[C@H](Oc3ccccc3)C2)cc1 (single isomer, unassigned) [Example 6]
